Test systems include EKVX NSCLC; HCT-15 colon; HT29 colon; LOX IMVI melanoma; OVCAR-3 ovarian; SK-MEL-2 melanoma; SNB-19 CNS; SR leukemia; UACC-62 melanoma; UO-31 renal.
Common to all, as to experiment: NCI anticancer screen, dose series, 48 h

The text below walks through data of PubChem BioAssay (NCI).

Structures are written as SMILES.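 Assay format: 96-well plates, 48-hour exposure. GI50 is the concentration that inhibits growth by half. TGI denotes the concentration required for complete inhibition of growth.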

Regarding `COc1cc2c(cc1OCCCOc1cc3c(cc1OC)C(=O)N1CC(F)(F)C[C@H]1C=N3)N=C[C@@H]1CC(F)(F)CN1C2=O`, the GI50 in the assay with EKVX NSCLC was 1660 nM; in the assay with HCT-15 colon it was 10400 nM; in the assay with HT29 colon it was 641 nM; in the assay with LOX IMVI melanoma, 256 nM; in the assay on OVCAR-3 ovarian it was 420 nM; in the assay on SK-MEL-2 melanoma, 2320 nM. In addition, the GI50 in the assay on SNB-19 CNS is 446 nM; in the assay with SR leukemia, under 26.1 nM; in the assay with UACC-62 melanoma it was 365 nM; in the assay with UO-31 renal, 1240 nM. Further, the TGI was 7.06 µM with EKVX NSCLC; 50.6 µM in the assay on HCT-15 colon; 13 µM in the assay with HT29 colon; 2.65 µM in the assay with LOX IMVI melanoma; 6.99 µM in the assay with OVCAR-3 ovarian; 12.8 µM in the assay with SK-MEL-2 melanoma. In addition, the TGI is 18.3 µM in the assay with SNB-19 CNS, 0.508 µM in the assay on SR leukemia, 1.82 µM in the assay on UACC-62 melanoma and over 33.1 µM in the assay on UO-31 renal.
For the compound `COc1ccc2c(c1)C(=O)c1c-2n(CCCCl)c(=O)c2cc([N+](=O)[O-])ccc12`, the GI50 in the assay with EKVX NSCLC was 30800 nM; in the assay with HCT-15 colon, 57.5 nM; in the assay on HT29 colon, 91.7 nM; in the assay with LOX IMVI melanoma, under 10 nM; with OVCAR-3 ovarian, 1320 nM; in the assay on SK-MEL-2 melanoma, 3560 nM. Besides, the GI50 was under 50.5 nM with SNB-19 CNS and under 12.5 nM in the assay on SR leukemia. The TGI was over 100 µM in the assay on EKVX NSCLC; over 100 µM in the assay with HCT-15 colon; over 100 µM with HT29 colon; 0.111 µM in the assay on LOX IMVI melanoma; 14 µM in the assay on OVCAR-3 ovarian; over 95.6 µM in the assay on SK-MEL-2 melanoma. Moreover, the TGI with SNB-19 CNS was over 100 µM; with UACC-62 melanoma it was 1.81 µM.
For `N=C(N)SC(c1ccccc1)c1ccccc1`, the TGI in the assay on EKVX NSCLC stood at 33.6 µM; in the assay with HCT-15 colon, 40.7 µM; with HT29 colon, 34.4 µM; in the assay with LOX IMVI melanoma it was 30.7 µM; in the assay with OVCAR-3 ovarian, 28.7 µM; with SK-MEL-2 melanoma, 32 µM. In addition, the TGI with SNB-19 CNS was over 100 µM; in the assay on SR leukemia it was over 100 µM; with UACC-62 melanoma, 30.8 µM; with UO-31 renal, 23.2 µM.
For the compound `NS(=O)(=O)c1ccc(C(=O)O)cc1`, the TGI in the assay with EKVX NSCLC, in the assay on HCT-15 colon, with HT29 colon, with LOX IMVI melanoma, in the assay with OVCAR-3 ovarian and with SK-MEL-2 melanoma was over 100 µM in each case. The TGI in the assay with SNB-19 CNS, with UACC-62 melanoma and with UO-31 renal was over 100 µM in each case.
For the compound `CC(C)(c1ccccc1)c1ccc(Oc2ccc3c(c2)-c2nc-3nc3[nH]c(nc4nc(nc5[nH]c(n2)c2ccc(Oc6ccc(C(C)(C)c7ccccc7)cc6)cc52)-c2cc(Oc5ccc(C(C)(C)c6ccccc6)cc5)ccc2-4)c2ccc(Oc4ccc(C(C)(C)c5ccccc5)cc4)cc32)cc1`, the TGI with EKVX NSCLC, in the assay on HT29 colon, in the assay on LOX IMVI melanoma, with SK-MEL-2 melanoma, with SNB-19 CNS and in the assay on UACC-62 melanoma was over 100 µM in each case. Also, in the assay with UO-31 renal, the TGI is over 100 µM.
For `Cc1cccc(NC(N)=S)c1`, the TGI in the assay on EKVX NSCLC, in the assay with HCT-15 colon, in the assay on HT29 colon, in the assay on LOX IMVI melanoma, with OVCAR-3 ovarian and in the assay on SK-MEL-2 melanoma was over 100 µM throughout. The TGI with SNB-19 CNS, in the assay with SR leukemia, in the assay with UACC-62 melanoma and in the assay on UO-31 renal was over 100 µM each time.
For `O=C(Nc1ccc(-n2ccc3c(NC(=O)c4ccccc4)ncnc32)cc1)Nc1ccc(Cl)c(C(F)(F)F)c1`, the GI50 with EKVX NSCLC is 1970 nM; in the assay on HCT-15 colon it was 765 nM; in the assay on HT29 colon it was 1520 nM; in the assay on LOX IMVI melanoma, 2000 nM; with OVCAR-3 ovarian it was 1720 nM; in the assay with SK-MEL-2 melanoma, 2440 nM. The GI50 with SNB-19 CNS was 2430 nM; in the assay with SR leukemia, 1740 nM; in the assay with UACC-62 melanoma it was 1900 nM; with UO-31 renal it was 2040 nM. The TGI in the assay with EKVX NSCLC stood at 4.99 µM; in the assay with HCT-15 colon, 2.19 µM; in the assay with HT29 colon it was 3.14 µM; in the assay on LOX IMVI melanoma, 6.77 µM; in the assay on OVCAR-3 ovarian it was 3.22 µM; in the assay with SK-MEL-2 melanoma, 5.66 µM. In addition, the TGI came to 7.18 µM in the assay with SNB-19 CNS, 4.76 µM in the assay with SR leukemia, 4.59 µM in the assay with UACC-62 melanoma and 4.73 µM with UO-31 renal.
`CCc1cc(C)cc2[n+]1CC=C2C`: the TGI with EKVX NSCLC, in the assay on HT29 colon, in the assay with LOX IMVI melanoma, in the assay with OVCAR-3 ovarian, in the assay with SK-MEL-2 melanoma and in the assay on SNB-19 CNS was over 100 µM in each case. Also, in the assay with UO-31 renal, the TGI is over 100 µM.
For the compound `CN(C)C=O.CN(C)C=O.CN1C(C(=O)Nc2ccccn2)=C([O-])c2ccccc2S1(=O)=O.CN1C(C(=O)Nc2ccccn2)=C([O-])c2ccccc2S1(=O)=O.[Cu+2]`, the TGI in the assay with EKVX NSCLC, with HCT-15 colon, in the assay with HT29 colon, in the assay with LOX IMVI melanoma, with OVCAR-3 ovarian and with SK-MEL-2 melanoma was over 100 µM in each case. Besides, the TGI with SNB-19 CNS is 41.2 µM; in the assay with SR leukemia, over 100 µM; with UACC-62 melanoma, 41.2 µM; in the assay on UO-31 renal it was over 100 µM.
Turning to `COc1ccc(C(=O)NNC(=O)c2nsc3ccccc23)cc1`, the TGI with EKVX NSCLC, in the assay with HCT-15 colon, in the assay with HT29 colon, in the assay with LOX IMVI melanoma, in the assay with OVCAR-3 ovarian and in the assay on SK-MEL-2 melanoma was over 100 µM throughout. For the same compound, the TGI in the assay with SNB-19 CNS, with UACC-62 melanoma and in the assay with UO-31 renal was over 100 µM in each case.
Take `COC(=O)C12OCC34C(CC5C(C)C6=CC(=O)OC6=CC5(C)C3C(O)C1O)OC(=O)C(OC(C)=O)C24` (centres undefined): the TGI in the assay with EKVX NSCLC was 31 µM; in the assay on HCT-15 colon, 42.5 µM; with HT29 colon, 33.9 µM; in the assay with LOX IMVI melanoma, 37 µM; with OVCAR-3 ovarian, 29.4 µM; in the assay on SK-MEL-2 melanoma it was 21 µM. Besides, the TGI was over 91 µM in the assay on SNB-19 CNS, 64.6 µM in the assay with SR leukemia, 21.9 µM in the assay with UACC-62 melanoma and 46 µM in the assay on UO-31 renal.
Take `O=C1CC(c2ccccc2)NCCCCN2CC(CN1)C(C(O)c1ccccc1)C2=O` (centres undefined): the TGI in the assay on EKVX NSCLC, in the assay with HCT-15 colon, in the assay on HT29 colon, with LOX IMVI melanoma, in the assay on OVCAR-3 ovarian and in the assay on SK-MEL-2 melanoma was over 100 µM each time. The TGI in the assay on SNB-19 CNS, in the assay with SR leukemia, in the assay on UACC-62 melanoma and in the assay with UO-31 renal was over 100 µM each time.
As to `CC1(C)CCCC2(C)C3=C(CCC12)C(=O)OC3` (centres undefined), the TGI in the assay on EKVX NSCLC, in the assay on HCT-15 colon, in the assay with HT29 colon, with LOX IMVI melanoma, in the assay with OVCAR-3 ovarian and with SK-MEL-2 melanoma was over 100 µM in each case. For the same compound, the TGI with SR leukemia, in the assay on UACC-62 melanoma and in the assay with UO-31 renal was over 100 µM each time.
Take `NC(CCCNc1ccc(O)cc1)C(=O)O` (centres undefined): the TGI with EKVX NSCLC is over 88.8 µM; in the assay on HCT-15 colon, over 60.7 µM; in the assay on HT29 colon, over 100 µM; in the assay on LOX IMVI melanoma, 33.3 µM; in the assay with OVCAR-3 ovarian it was 35 µM; in the assay on SK-MEL-2 melanoma, over 66.8 µM. Besides, the TGI is over 100 µM with SNB-19 CNS, 55.8 µM with SR leukemia, 38.2 µM in the assay with UACC-62 melanoma and over 100 µM in the assay on UO-31 renal.
Take `Cc1cc(N2CCCCC2)nc(NCc2cc(Nc3ccnc4cc(Cl)ccc34)ccc2F)n1`: the GI50 in the assay with EKVX NSCLC is 1620 nM; in the assay with HCT-15 colon, 1840 nM; in the assay with HT29 colon it was 795 nM; in the assay on LOX IMVI melanoma, 1730 nM; in the assay on OVCAR-3 ovarian, 1740 nM; with SK-MEL-2 melanoma it was 1890 nM. In addition, the GI50 in the assay on SNB-19 CNS was 1870 nM; with SR leukemia it was 1940 nM; with UACC-62 melanoma, 1620 nM; with UO-31 renal, 1610 nM. Moreover, the TGI in the assay on EKVX NSCLC was 3.77 µM; in the assay on HCT-15 colon, 3.8 µM; with HT29 colon, 2.21 µM; with LOX IMVI melanoma, 3.29 µM; in the assay with OVCAR-3 ovarian it was 3.17 µM; in the assay with SK-MEL-2 melanoma it was 3.59 µM. Besides, the TGI in the assay with SNB-19 CNS was 6.33 µM; in the assay on SR leukemia, 4.99 µM; with UACC-62 melanoma, 3.44 µM; with UO-31 renal, 3.13 µM.
In the case of `NCc1ccc(O)c(O)c1O`, the TGI was over 100 µM in the assay with EKVX NSCLC; 47.7 µM with HCT-15 colon; 29.2 µM with HT29 colon; 32 µM in the assay on LOX IMVI melanoma; 47 µM in the assay with OVCAR-3 ovarian; 57.2 µM with SK-MEL-2 melanoma. For the same compound, the TGI was over 97.3 µM with SNB-19 CNS, 62 µM in the assay on SR leukemia, over 67.3 µM in the assay with UACC-62 melanoma and over 100 µM in the assay on UO-31 renal.
In the case of `Cn1c(=O)c2c(nc(N3CCOCC3)n2CCCNCC(O)c2ccc(O)c(O)c2)n(C)c1=O` (centres undefined), the TGI in the assay on EKVX NSCLC, in the assay on HCT-15 colon, with HT29 colon, in the assay with LOX IMVI melanoma, with OVCAR-3 ovarian and with SK-MEL-2 melanoma was over 100 µM throughout. Moreover, the TGI with SNB-19 CNS, with SR leukemia, with UACC-62 melanoma and with UO-31 renal was over 100 µM throughout.
With `Cc1nc2ccccc2c(=O)n1Nc1ccc(C(=O)O)cc1`, the TGI in the assay with EKVX NSCLC, in the assay on HCT-15 colon, in the assay with HT29 colon, in the assay with LOX IMVI melanoma, with OVCAR-3 ovarian and in the assay on SK-MEL-2 melanoma was over 100 µM throughout. Also, the TGI in the assay on SNB-19 CNS, in the assay with UACC-62 melanoma and in the assay with UO-31 renal was over 100 µM throughout.
`CC(C)C(C)C(O)C(O)C(C)C1CCC2C3COC(=O)C4CC(O)C(O)CC4(C)C3CCC12C` (centres undefined): the TGI in the assay on EKVX NSCLC, with HCT-15 colon, in the assay with HT29 colon, in the assay with LOX IMVI melanoma, in the assay with SK-MEL-2 melanoma and in the assay with SNB-19 CNS was over 100 µM throughout. The TGI in the assay with UACC-62 melanoma and in the assay on UO-31 renal was over 100 µM in each case.
